According to ChEMBL document CHEMBL4673390, “Discovery of Aminopyrazole Derivatives as Potent Inhibitors of Wild-Type and Gatekeeper Mutant FGFR2 and 3” (ACS Med Chem Lett, 2021):

Tests used:
in vivo [1] = conditions: CD-1, mouse, po, 10 mg/kg
in vivo [2] = conditions: CD-1, mouse, po, 10 mg/kg; remark: listed apart in the source
in vivo [3] = conditions: CD-1, mouse, iv, 5 mg/kg
in vivo [4] = conditions: CD-1, mouse, iv, 5 mg/kg; remark: listed apart in the source
in vivo [5] = conditions: CD-1, mouse, po, 10 mg/kg; remark: listed apart in the source
in vitro [6] = conditions: mouse, blood
in vitro [7] = conditions: human, blood
in vitro [8] = conditions: human, Caco-2

## C=CC(=O)Nc1ccc(/C=C/c2nc(Nc3cc(C(C)C)[nH]n3)cc(N3CCN(C)CC3)n2)cc1
In vivo [1]
  AUC at 24 h: 400 ng·h/mL
In vivo [2]
  Cmax at 24 h: 103 ng/mL
In vivo [3]
  Vd at 24 h: 3.1 L/kg
In vivo [4]
  clearance at 24 h: 86.3 mL/min/kg
In vivo [5]
  bioavailability at 24 h: 21%
In vitro [6]
  half-life at 2 h, 2 µM: 1.9 h
In vitro [7]
  half-life at 2 h, 2 µM: 2.02 h
In vitro [8]
  Papp A→B at 2 h: 0.1 ×10⁻⁶ cm/s

## C=CC(=O)Nc1ccc(CCc2nc(Nc3cc(C)[nH]n3)cc(N3CCN(C)CC3)n2)cc1
In vitro [6]
  half-life at 2 h, 2 µM: 2.62 h
In vitro [7]
  half-life at 2 h, 2 µM: 4.12 h
In vitro [8]
  Papp A→B at 2 h: 0.3 ×10⁻⁶ cm/s

## C=CC(=O)N1CCC2(CCN(c3nc(Nc4cc(C(C)C)[nH]n4)cc(N4CCN(C)CC4)n3)CC2)C1
In vitro [6]
  half-life at 2 h, 2 µM: 2.73 h
In vitro [7]
  half-life at 2 h, 2 µM: 3.03 h
In vitro [8]
  Papp A→B at 2 h: 0.2 ×10⁻⁶ cm/s
